pIC50: −log10 of the molar value. Where a name gives a salt, the structure may show the parent alone. Read-outs that look alike come from different tables or passages of the source.
Experiments:
IMP-1 = IMP-1 (Serratia marcescens, UniProt P52699); assay: biochemical; format: biochemical; settings: fluorescence assay, CCF2-FA substrate, 2 pM enzyme, 2 hours at 25° C.; read-out: IMP-1 IC50
In short: (§1)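 Fluorescence assay of metallo-β-lactamase activity using CCF2-FA, a cephalosporin-linked 7-hydroxycoumarin–fluorescein substrate. Inhibitor, enzyme and substrate were incubated together for 2 hours at 25° C. IC50 came from a 4-parameter fit of inhibition versus inhibitor concentration.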

NDM-1 = NDM-1 (Klebsiella pneumoniae, UniProt C7C422); assay: biochemical; format: biochemical; settings: fluorescence assay, CCF2-FA substrate, 1 pM enzyme, 2 hours at 25° C.; read-out: NDM-1 IC50
In short: as §1

VIM-1 = VIM-1 (Pseudomonas aeruginosa (strain ATCC 15692 / DSM 22644 / CIP 104116 / JCM 14847 / LMG 12228 / 1C / PRS 101 / PAO1), UniProt A0A0F7KYQ8); assay: biochemical; settings: CCF2-FA substrate, 30 pM enzyme, 2 hours at 25° C.
In short: as §1

[1] = tested on: Escherichia coli expressing NDM-1 (CLB30005, CLB30016); format: cell-based; settings: NDM-1 strain, with imipenem 1 μg/ml, 95% inhibition of growth
In short: (§2)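 Imipenem 1 μg/ml + inhibitor; MBL-expressing clinical strains in 1.1×CAMHB, inoculum from saline suspension diluted 1:100; 35° C, 22–24 h; absorbance read-out.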

[2] = tested on: Klebsiella pneumoniae expressing VIM-1 (IHMA599644); format: cell-based; settings: VIM-1 strain IHMA599644, with imipenem 1 μg/ml, 95% inhibition of growth
In short: as §2

[3] = tested on: Serratia marcescens expressing IMP-1 (CL5741); format: cell-based; settings: IMP-1 strain CL5741, with imipenem 1 μg/ml, 95% inhibition of growth
In short: as §2

[4] = tested on: Pseudomonas aeruginosa efflux+ (MB9798), IMP-1; format: cell-based; design: Concentration of metallo-β-lactamase inhibitor which restores susceptibility of efflux + (MB9798) strain to imipenem: unit not given here; settings: efflux+ MB9798; imipenem at 2 μg/mL; in the presence of a class A, C, D serine β-lactamase inhibitor closely related to relebactam
In short: (§3)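 Steps: add fixed imipenem and/or ceftazidime (usually CLSI breakpoint) and fixed AmpC-directed class A/C inhibitor to microbroth MIC wells; titrate MBL inhibitor; record concentration regaining susceptibility for each PAO1-derived strain; divide efflux+ by efflux− value.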

[5] = tested on: Pseudomonas aeruginosa efflux− (MB9799), IMP-1; format: cell-based; settings: efflux− MB9799; imipenem at 2 μg/mL; in the presence of a class A, C, D serine β-lactamase inhibitor closely related to relebactam
In short: as §3

[6] = tested on: Pseudomonas aeruginosa MB9798 vs MB9799; settings: fold difference between efflux+ (MB9798) and efflux− (MB9799) strains; imipenem at 2 μg/mL
In short: as §3

[7] = fluorescence assay, read-out: VIM-1 IC50

IMP-1, sequence (P52699 whole entry, looked up, species assumed): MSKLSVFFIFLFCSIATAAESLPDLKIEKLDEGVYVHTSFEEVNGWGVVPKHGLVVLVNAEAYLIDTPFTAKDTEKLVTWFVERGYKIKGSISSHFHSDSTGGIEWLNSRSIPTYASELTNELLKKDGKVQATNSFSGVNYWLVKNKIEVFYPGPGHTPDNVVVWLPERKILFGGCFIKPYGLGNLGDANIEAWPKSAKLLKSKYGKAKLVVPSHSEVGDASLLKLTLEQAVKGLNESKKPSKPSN
NDM-1, sequence (C7C422 whole entry, looked up, species assumed): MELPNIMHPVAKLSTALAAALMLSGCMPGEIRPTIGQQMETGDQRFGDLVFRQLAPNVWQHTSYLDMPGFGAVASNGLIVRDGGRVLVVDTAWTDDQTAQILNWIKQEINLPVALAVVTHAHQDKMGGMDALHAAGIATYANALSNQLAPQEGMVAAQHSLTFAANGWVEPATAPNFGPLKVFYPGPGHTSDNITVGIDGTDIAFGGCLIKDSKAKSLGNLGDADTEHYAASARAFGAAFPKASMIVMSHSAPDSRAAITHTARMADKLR

| SMILES | pIC50 (IMP-1) | pIC50 (NDM-1) | pIC50 (VIM-1; [7]) | Escherichia coli MITC95 [1] | Klebsiella pneumoniae MITC95 [2] | Serratia marcescens MITC95 [3] | Concentration of metallo-β-lactamase inhibitor which restores susceptibility of efflux + (MB9798) strain to imipenem [4] | Concentration of metallo-β-lactamase inhibitor which restores susceptibility of efflux − (MB9799) strain to imipenem [5] | Efflux ratio [6] | pIC50 (VIM-1; VIM-1 IC50, fluorescence assay) |
| --- | --- | --- | --- | --- | --- | --- | --- | --- | --- | --- |
| NC(=O)c1csc(Nc2cccc(-c3ccc(S(=O)(=O)N[C@@H]4CCNC4)c(S(N)(=O)=O)c3-c3nn[nH]n3)c2)n1 [Example 471, (R)-2-((4′-(N-(pyrrolidin-3-yl)sulfamoyl)-3′-sulfamoyl-2′-(2H-tetrazol-5-yl)-[1,1′-biphenyl]-3-yl)amino)thiazole-4-carboxamide] | 9.95 | 10.52 | 10.13 | 1.563 µM | 3.125 µM | 1.563 µM | 3.125 | 0.7813 | 4.00 | – |
| NS(=O)(=O)c1c(S(=O)(=O)N[C@H]2CCNC2)ccc(-c2cccc(Nc3ncc[nH]3)c2)c1-c1nn[nH]n1 [Example 472, dihydrochloride] | 9.07 | 9.94 | – | 0.7813 µM | 0.7813 µM | 0.7813 µM | 1.563 | 0.3906 | 4.00 | 9.72 |
| NCc1nc2cc(-c3ccc(S(=O)(=O)NC[C@@H](O)CN)c(S(N)(=O)=O)c3-c3nn[nH]n3)ccc2s1 [Example 473, (S)-N1-(3-amino-2-hydroxypropyl)-4-(2-(aminomethyl)benzo[d]thiazol-5-yl)-3-(2H-tetrazol-5-yl)benzene-1,2-disulfonamide] | 9.48 | 9.87 | 9.96 | 0.7813 µM | 1.563 µM | 1.563 µM | 0.7813 | 0.7813 | 1.00 | – |
| NCc1nc2cc(-c3ccc(S(=O)(=O)N[C@@H](CN)CO)c(S(N)(=O)=O)c3-c3nn[nH]n3)ccc2[nH]1 [Example 474, (S)-N1-(1-amino-3-hydroxypropan-2-yl)-4-(2-(aminomethyl)-1H-benzo[d]imidazol-5-yl)-3-(2H-tetrazol-5-yl)benzene-1,2-disulfonamide] | 9.28 | 9.98 | 9.85 | 0.7813 µM | 1.563 µM | 1.563 µM | 0.7813 | 0.7813 | 1.00 | – |
| NCc1nc2cc(-c3ccc(S(=O)(=O)N[C@@H](CN)CO)c(S(N)(=O)=O)c3-c3nn[nH]n3)ccc2s1 [Example 475, (S)-N1-(1-amino-3-hydroxypropan-2-yl)-4-(2-(aminomethyl)benzo[d]thiazol-5-yl)-3-(2H-tetrazol-5-yl)benzene-1,2-disulfonamide] | 9.89 | 10.22 | 10.06 | 0.7813 µM | 1.563 µM | 1.563 µM | 0.7813 | 0.7813 | 1.00 | – |
| NCCNS(=O)(=O)c1ccc(-c2ccc3sc(CN)nc3c2)c(-c2nn[nH]n2)c1S(N)(=O)=O [Example 476, N1-(2-aminoethyl)-4-(2-(aminomethyl)benzo[d]thiazol-5-yl)-3-(2H-tetrazol-5-yl)benzene-1,2-disulfonamide] | 9.55 | 9.57 | 9.92 | 1.563 µM | 1.563 µM | 0.7813 µM | 0.7813 | 0.7813 | 1.00 | – |
| Cc1cc(-c2ccc(S(=O)(=O)NC[C@H](O)CN)c(S(N)(=O)=O)c2-c2nn[nH]n2)cnc1N [Example 477, (R)—N1-(3-amino-2-hydroxypropyl)-4-(6-amino-5-methylpyridin-3-yl)-3-(2H-tetrazol-5-yl)benzene-1,2-disulfonamide] | 9.07 | 9.55 | 9.88 | 0.1953 µM | 1.563 µM | 0.7813 µM | 1.563 | 0.7813 | 2.00 | – |
| NC[C@@H](O)CNS(=O)(=O)c1ccc(-c2cnc(N)c(F)c2)c(-c2nn[nH]n2)c1S(N)(=O)=O [Example 478, (R)-N1-(3-amino-2-hydroxypropyl)-4-(6-amino-5-fluoropyridin-3-yl)-3-(2H-tetrazol-5-yl)benzene-1,2-disulfonamide] | 9.17 | 9.80 | – | 1.563 µM | 3.125 µM | 1.563 µM | 0.7813 | 0.7813 | 1.00 | 10.04 |
| C[C@H](N)CNS(=O)(=O)c1ccc(-c2ccc(N)nc2)c(-c2nn[nH]n2)c1S(N)(=O)=O [Example 479, (S)—N1-(2-aminopropyl)-4-(6-aminopyridin-3-yl)-3-(2H-tetrazol-5-yl) benzene-1,2-disulfonamide] | 9.18 | 9.65 | 9.52 | 0.1953 µM | 1.563 µM | 0.7813 µM | 0.7813 | 0.7813 | 1.00 | – |
| C[C@@H](N)CNS(=O)(=O)c1ccc(-c2ccc(N)nc2)c(-c2nn[nH]n2)c1S(N)(=O)=O [Example 480, (R)—N1-(2-aminopropyl)-4-(6-aminopyridin-3-yl)-3-(2H-tetrazol-5-yl) benzene-1,2-disulfonamide] | 9.50 | 9.64 | 9.60 | 0.1953 µM | 1.563 µM | 0.3906 µM | 0.7813 | 0.7813 | 1.00 | – |
| NS(=O)(=O)c1c(S(=O)(=O)NC[C@H]2CNCCN2)ccc(-c2cccc3[nH]cnc23)c1-c1nn[nH]n1 [Example 481, (R)-4-(1H-benzo[d]imidazol-4-yl)-N1-(piperazin-2-ylmethyl)-3-(1H-tetrazol-5-yl)benzene-1,2-disulfonamide] | 9.60 | 10.34 | 9.92 | 3.125 µM | 3.125 µM | 1.563 µM | 1.563 | 1.563 | 1.00 | – |
| NCCNCCNS(=O)(=O)c1ccc(-c2ccc(N)nc2)c(-c2nn[nH]n2)c1S(N)(=O)=O [Example 482, N1-(2-(-2-amineoethylamino)ethyl)-4-(6-aminopyridin-3-yl)-3-(2H-tetrazol-5-yl)benzene-1,2-disulfonamide] | 8.94 | 9.27 | – | 0.1953 µM | 1.563 µM | 0.7813 µM | 1.563 | 0.7813 | 2.00 | 9.48 |
